Measurements as given in US8110543B2, “Anti-invasive and anti-angiogenic compositions” (Angstrom Pharmaceuticals, Inc., priority 1997, dated 2012).

How the values were obtained:
[1] = system: matrix metalloproteinases MMP2 and MMP9; assay: EnzCheck gelatinase assay (MMP activity); format: biochemical; conditions: concentrations up to 100 μM; HT1080 supernatant activated with phenylmercuric acetate
Experimental: HT1080 cells were grown in the presence of dexamethasone for 24 hrs and the supernatant collected and treated with phenylmercuric acetate to activate proMMPs.

Mat B-III = assay: In vitro proliferation, Mat B-III cells; format: cell-based, rat
Experimental: (§1) Å6 was also tested for its ability to inhibit the proliferation of cells other than endothelial cells in vitro.

uPA = uPA (Homo sapiens, UniProt P00749); assay: uPA activity / activation of plasminogen; format: biochemical
scuPA-suPAR = scuPA-suPAR (Homo sapiens, UniProt P00749); assay: Activation of plasminogen by scuPA-suPAR with small chromogenic substrates; format: biochemical
[2] = system: bFGF-induced angiogenesis; assay: Chick CAM angiogenesis assay; format: in vivo
Experimental: Major vessels were quantitated at this time.
A: Control CAM; B: CAM treated with 1.2 μg/disk of Å6.
Å6 was tested for its effect on bFGF-induced angiogenesis in a 7 day old chick CAM assay.

HeLa = assay: In vitro proliferation, HeLa cells; format: cell-based
Experimental: as §1

[3] = system: PC-3 and Mat B III tumor cells
HUVEC = HUVEC proliferation assay; format: cell-based, human
Experimental: HUVEC were plated on gelatin and allowed to adhere for 4 hrs in the presence of 2% FBS. bFGF (1 ng/mL) and the test compounds were added after 4 hours and the % proliferation (where bFGF induced proliferation was 100% and proliferation in the absence of bFGF was 0) was determined using MTS. FIG. 4: the Å6 (50 μg/mL) concentration was kept constant and the concentration of cisplatin (“CDDP”) was varied; FIG. 5: CDDP was kept constant at a sub-optimal dose (1 μg/mL) and Å6 was varied.
Å6 was tested for its ability to inhibit HUVEC proliferation.

MDA-MB-231 = assay: In vitro proliferation, MDA-MB-231 cells; format: cell-based, human
Experimental: as §1

U87 tumors = assay: U87 glioblastoma orthotopic model; format: in vivo, mice
Experimental: U87 cells were inoculated into the ventricles of nude mice and treatment was initiated 72 hrs after inoculation. Tumor volume was determined using caliper measurements after euthanasia and necropsy.
A: Control; B: Å6 only; C: CDDP only; D: Å6+CDDP.
U87 tumors were surgically inoculated into the cerebral ventricles of mice. The animals were allowed to recover for 72 hours at which time treatment with Å6 (75 mg/kg/day IP bid), CDDP (3 mg/kg/day given every other day from day 4×6 administrations), or a combination of Å6+CDDP was initiated,
Animals were treated for 21 days at which time they were euthanized and their brains evaluated for the presence of tumor. Transverse sections were stained with hematoxylin and eosin (H&E).
Tumor sections were also evaluated for microvessel density using antibodies specific for mouse-CD31 in immunostaining. Very few CD31^+ foci were evident in animals treated with the combination of Å6+CDDP.
Tumors were established as in the previous section, and the same therapeutic regimens were employed. Treatment was discontinued at day 21, and survival was measured. Control animals appeared moribund around day 25 and all of the animals in this group were dead by day 30.

[4] = system: SMC (aortic smooth muscle cells); assay: In vitro proliferation, SMC; format: cell-based
Experimental: as §1

[5] = system: MDA-MB-231 human breast cancer cells; assay: MDA-MB-231 GFP xenograft model; format: in vivo, mice
Experimental: Nude mice (n=5 per group) were challenged with 2×10^5 tumor cells co-injected into the mammary fat pad of the mice with Matrigel. […] Control animals received vehicle (PBS) only.
These cells were first transfected with green fluorescent protein (GFP) to simplify the detection and visualization of metastases.
The tumor cells (5×10^5) were suspended in 0.1 mL of Matrigel and injected into the mammary fat pad of female BALB/c nu/nu mice. Treatment (75 mg/kg/day) was initiated when the tumors were palpable (10 mm^3, approximately 4 weeks after inoculation of tumor cells) and continued for 5 weeks. Tumor volumes were determined twice per week using caliper measurements. The animals were euthanized at the end of the 5th week of treatment, necropsied and examined for macroscopic metastases. Sections prepared from LNs, lung, liver, spleen and kidney were analyzed for microscopic dissemination of tumor cells using fluorescence microscopy to detect GFP-positive foci.
Macroscopic metastases were enumerated and their size measured with calipers (Table I below). Microscopic dissemination of tumor cells was quantitated by counting GFP-positive foci in representative sections from lung, liver, kidney and spleen.
Macrometastases were determined by excising involved LNs and determining the tumor volume by caliper measurement. Microscopic tumor foci were quantitated by sectioning and fixing target organs, then visualizing GFP-labeled cells using fluorescence microscopy (at 200× enlargement). The number of disseminated tumor foci represents the average of 5 fields per section from 3 different sections per organ.

[6] = system: MDA-MB-231 human breast cancer cells; assay: Matrigel invasion assay, MDA-MB-231 cells; format: cell-based; conditions: FIG. 7
Experimental: (§2) Several peptides were tested for anti-invasive capacity in a Matrigel® invasion assay system as indicated above (Kleinman et al., supra; Parish et al., supra). Several invasive human tumor lines (PC-3, MDA-MB-231) and non-human tumors (3LL, Mat B-III) were examined. The rat breast cancer line Mat B III and the human prostate cancer line PC-3 were initially used.
(§3) Tumor cells (5×10^5/mL, in a volume of 200 μL) in serum-free RPMI 1640 medium were added to a disposable transwell invasion chamber coated with Matrigel® (Becton Dickinson, Lincoln Park, N.J.). The invasion chambers were placed in 24-well tissue culture plates filled with serum-free RPMI-1640 and the plates were placed in an atmosphere of 5% CO2 in humidified air at 37° C. for 48-72 hours. The chambers were then removed, inverted, and the cells which had invaded (and now appeared on the bottom face of the invasion chamber) were fixed and stained using Diff-Quick® (Scientific Products). Cells were counted in 10 different fields on each filter and an average obtained.

[7] = system: human prostate cancer line PC-3; assay: Matrigel invasion assay, PC-3 cells; format: cell-based; conditions: 5 μM (FIG. 1, FIG. 2)
Experimental: as §2, §3

[8] = average of 5 fields per section from 3 sections

**Q.** For “Ac-KPSSPPEE-NH2 [Å6, CH3CO-Lys-Pro-Ser-Ser-Pro-Pro-Glu-Glu-NH2]”, which solubility is on record?
**A.** > 100 mg/mL

**Q.** And the “inhibition of gelatinase activity” value [1]?
**A.** did not inhibit

**Q.** And the “anti-proliferative effect, Mat B-III” value (Mat B-III)?
**A.** No anti-proliferative effects

**Q.** And the “effect on the activity of uPA directly” value (uPA)?
**A.** did not affect

**Q.** And the “inhibition of the activation of plasminogen” value (uPA)?
**A.** no effect

**Q.** And the “effect on activation of plasminogen by scuPA-suPAR” value (scuPA-suPAR)?
**A.** did not affect

**Q.** And the “bFGF-induced angiogenesis (major vessel formation) in CAM” value ([2]; 7 day old chick CAM, 4 days)?
**A.** inhibits angiogenesis

**Q.** What about the “branching morphogenesis in CAM” value ([2]; qualitative, stereomicroscopic images) of the same substance?
**A.** inhibited branching morphogenesis

**Q.** And the “anti-proliferative effect, HeLa” value (HeLa)?
**A.** No anti-proliferative effects

**Q.** And the “cytotoxicity to the cells” value [3]?
**A.** not cytotoxic

**Q.** And the “inhibition of cell proliferation” value ([3]; tumor cells of the invasion assay)?
**A.** nor did it inhibit cell proliferation

**Q.** And the “potentiation of the anti-proliferative activity of cisplatin (CDDP) against endothelial cells” value (HUVEC; CDDP 1 μg/mL, Å6 varied (FIG. 5))?
**A.** did not potentiate

**Q.** What about the “inhibition of HUVEC proliferation” value (HUVEC; concentrations as high as 312 μg/mL (340 μM), gelatin, 2% FBS) of the same substance?
**A.** No inhibition

**Q.** What about the “anti-proliferative effect, MDA-MB-231” value (MDA-MB-231) of the same substance?
**A.** No anti-proliferative effects

**Q.** What about the “differentiation of the vessels” value (U87 tumors; qualitative) of the same substance?
**A.** fewer branching vessels

**Q.** What about the “microvessel density (CD31+ foci), angiogenesis” value (U87 tumors; tumor sections, mouse-CD31 immunostaining) of the same substance?
**A.** inhibited angiogenesis to some extent

**Q.** What about the “anti-proliferative effect, SMC” value [4] of the same substance?
**A.** No anti-proliferative effects

**Q.** What about the “growth of primary challenge tumors” value ([5]; IP, 1 mg bid, started when tumor nodules palpable (FIG. 15)) of the same substance?
**A.** inhibits the growth

**Q.** What about the “Disseminated GFP-positive Tumor Foci, Liver” value [5, 8] of the same substance?
**A.** 3.11 ± 0.14

**Q.** What about the “Disseminated GFP-positive Tumor Foci, Lung” value [5, 8] of the same substance?
**A.** 2.09 ± 0.30

**Q.** And the “Disseminated GFP-positive Tumor Foci, Spleen” value [5, 8]?
**A.** 28.30 ± 2.80

**Q.** What about the “Macroscopic Metastases, Lungs, Number” value ([5]; end of 5th week of treatment) of the same substance?
**A.** 1 ± 0

**Q.** What about the “Macroscopic Metastases, Lymph Nodes, Number” value ([5]; end of 5th week of treatment) of the same substance?
**A.** 1.2 ± 0.2

**Q.** And the “Macroscopic Metastases, Lymph Nodes, Size” value ([5]; end of 5th week of treatment)?
**A.** 7 ± 3 mm^3

**Q.** And the “single foci versus larger colonies in organ sections” value ([5]; liver and lungs)?
**A.** greater number of single foci

**Q.** And the “Factor VIII-positive hot spots in tumor sections” value ([5]; mouse, in vivo)?
**A.** decrease

**Q.** And the “TUNEL-positive foci in tumor sections” value ([5]; mouse, in vivo)?
**A.** significant increase

**Q.** What about the “invasion of MDA-MB-231 cells through Matrigel” value [6] of the same substance?
**A.** inhibits the invasion

**Q.** What about the “in vitro invasion of PC-3 cells in a Matrigel system” value [7] of the same substance?
**A.** inhibited the invasion
